Results published in ChEMBL document CHEMBL4321787, “Overview of Recent Strategic Advances in Medicinal Chemistry” (J Med Chem, 2019).

Columns and labels:
[1] = Inhibition of Acinetobacter baumannii N-terminal ADC-7 cephalosporinase expressed in Escherichia coli BL21(DE3) incubated for 5 mins by UV-vis spectrophotometric method
[2] = biological target: T1, Envelope glycoprotein gp160 (Human immunodeficiency virus 1, UniProt Q6QLK5); experiment: Inhibition of HIV1 gp120 assessed as increase in anti-DNP binding to immobilized HIV-1 gp120 incubated for 1 hr by ELISA
[3] = biological target: T1, Envelope glycoprotein gp160; experiment: Inhibition of HIV1 JRFL gp120 assessed as reduction in CD4/gp 120 complex formation incubated for 1 hr by ELISA
[4] = test system: Human immunodeficiency virus 1; experiment: Antiviral activity against HIV1 3B infected in human MT2 cells incubated for 5 days by MTT assay; format: functional, organism-based; conditions: Human immunodeficiency virus 1, 3B, MT2, 120 h
[5] = biological target: Protease (Human immunodeficiency virus 1, UniProt Q9YQ12); experiment: Inhibition of HIV1 protease using RE(Edans)SGIFLETSK(Dabcyl)R as substrate by fluorescence method
[6] = test system: Human immunodeficiency virus 1; experiment: Antiviral activity against HIV1 infected in human MT2 cells incubated for 5 days; format: functional, organism-based; conditions: Human immunodeficiency virus 1, MT2, 120 h
[7] = Inhibition of HIV1 reverse transcriptase p66/p51 K103N/Y181C mutant infected in human MT2 cells assessed as reduction in viral infection incubated for 5 days
[8] = Cytotoxicity against human MT2 cells incubated for 5 days; format: cell-based
[9] = biological target: Histone deacetylase; experiment: Inhibition of HDAC (unknown origin) using Fluoro-Substrate Peptide as substrate by fluorescence assay; format: protein assay, Homo sapiens
[10] = biological target: Histone deacetylase 3 (Homo sapiens, UniProt O15379); experiment: Inhibition of HDAC3 (unknown origin)
Sequence of Histone deacetylase 3 (O15379 whole entry): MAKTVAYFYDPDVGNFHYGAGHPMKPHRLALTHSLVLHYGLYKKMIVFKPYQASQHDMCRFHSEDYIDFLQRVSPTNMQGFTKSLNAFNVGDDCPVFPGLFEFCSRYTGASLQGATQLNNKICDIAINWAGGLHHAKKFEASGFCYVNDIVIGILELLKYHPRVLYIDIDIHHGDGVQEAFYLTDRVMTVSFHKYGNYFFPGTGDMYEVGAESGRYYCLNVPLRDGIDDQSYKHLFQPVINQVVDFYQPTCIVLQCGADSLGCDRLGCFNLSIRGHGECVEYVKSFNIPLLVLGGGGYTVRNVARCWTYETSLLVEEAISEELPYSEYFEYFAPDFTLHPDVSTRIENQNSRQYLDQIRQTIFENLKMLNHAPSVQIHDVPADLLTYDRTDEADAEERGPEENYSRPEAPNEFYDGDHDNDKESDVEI

T1 sequence (Q6QLK5 whole entry): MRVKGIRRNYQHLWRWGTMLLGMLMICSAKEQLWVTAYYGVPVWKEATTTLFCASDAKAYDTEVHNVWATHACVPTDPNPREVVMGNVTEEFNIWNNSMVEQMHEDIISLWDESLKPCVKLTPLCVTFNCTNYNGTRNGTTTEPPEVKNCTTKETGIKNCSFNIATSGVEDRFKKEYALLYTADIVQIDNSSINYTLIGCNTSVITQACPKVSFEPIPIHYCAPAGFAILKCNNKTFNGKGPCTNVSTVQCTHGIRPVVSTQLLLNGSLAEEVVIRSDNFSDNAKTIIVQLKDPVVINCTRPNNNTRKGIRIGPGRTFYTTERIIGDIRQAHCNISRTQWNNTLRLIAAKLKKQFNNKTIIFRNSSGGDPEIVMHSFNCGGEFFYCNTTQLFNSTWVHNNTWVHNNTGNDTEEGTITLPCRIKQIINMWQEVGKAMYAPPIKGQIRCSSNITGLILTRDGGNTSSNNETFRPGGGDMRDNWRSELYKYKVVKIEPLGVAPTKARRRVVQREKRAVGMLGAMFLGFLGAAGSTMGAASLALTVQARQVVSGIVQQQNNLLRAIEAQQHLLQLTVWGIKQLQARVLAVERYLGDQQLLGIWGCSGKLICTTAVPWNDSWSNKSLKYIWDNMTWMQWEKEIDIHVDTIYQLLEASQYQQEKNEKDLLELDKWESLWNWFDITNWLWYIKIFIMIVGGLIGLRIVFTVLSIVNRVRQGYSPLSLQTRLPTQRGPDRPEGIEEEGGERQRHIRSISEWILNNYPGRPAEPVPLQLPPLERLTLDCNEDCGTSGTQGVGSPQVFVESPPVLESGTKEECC
Sequence of Protease (Q9YQ12 whole entry): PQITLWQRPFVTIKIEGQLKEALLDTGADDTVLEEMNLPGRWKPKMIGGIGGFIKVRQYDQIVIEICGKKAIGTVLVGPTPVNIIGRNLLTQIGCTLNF

In the case of `O=C(Cc1cccs1)N[C@@H](Cn1cc(C(=O)O)nn1)B(O)O`, the Ki [1] is reported as 44 nM.

With `COc1ccc(-c2ccc(CNC(=O)COCCOCCOCCOCCn3cc(COCCOCCOCCOCCNc4ccc([N+](=O)[O-])cc4[N+](=O)[O-])nn3)o2)c2[nH]cc(C(=O)C(=O)N3CCN(C(=O)c4ccccc4)CC3)c12` the EC50 [2] was 1120 nM, the IC50 [3] was 330 nM and the IC50 [4] was 13 nM.

Compound `CC(C)CN(C[C@@H](O)[C@H](Cc1ccccc1)NC(=O)O[C@H]1CO[C@H]2OCC[C@H]21)S(=O)(=O)c1ccc(B(O)O)cc1` has a Ki [5] of 0.0005 nM.

In the case of `Cc1c(Oc2ccccc2OCCn2ccc(=O)[nH]c2=O)cc(Cl)c2ccc(C#N)cc12`, the EC50 [6] is reported as 6.2 nM, the EC50 [7] is reported as 280 nM and the CC50 at 120 h [8] is reported as > 100000 nM.

In the case of `COc1ccc(-c2ccco2)c2[nH]cc(C(=O)C(=O)N3CCN(C(=O)c4ccccc4)CC3)c12`, the IC50 [3] is reported as 130 nM and the IC50 [4] is reported as 0.064 nM.

In the case of `Nc1ccccc1NC(=O)c1ccc(-c2cn(CCc3cccc([N+](=O)[O-])c3)nn2)s1`, the IC50 [9] is reported as > 100000 nM.

For `Cc1c(Oc2ccccc2OCCn2ccc(=O)[nH]c2=O)cc(N(C)C(=O)CF)c2ccc(C#N)cc12`, the EC50 [6] was 890 nM and the CC50 at 120 h [8] was > 100000 nM.

For `Nc1ccccc1NC(=O)c1ccc(-c2cn(CCc3ccsc3)nn2)cc1`, the IC50 [9] was > 100000 nM.

`O=C(NO)c1cccc(-c2cn(CSc3ccccc3)nn2)c1` gave an IC50 [10] of 68000 nM.

`C[C@@H]1CN(C(=O)c2ccccc2)CCN1C(=O)C(=O)c1c[nH]c2nccc(OCCOCCOCCOCCOCCOCCn3cc(COCCOCCOCCOCCNc4ccc([N+](=O)[O-])cc4[N+](=O)[O-])nn3)c12` showed an EC50 [2] of 37900 nM and an IC50 [3] of 19900 nM.

With `C=CC(=O)Nc1cc(Oc2ccccc2OCCn2ccc(=O)[nH]c2=O)c(C)c2cc(C#N)ccc12` the EC50 [6] was 1600 nM and the CC50 at 120 h [8] was 11000 nM.

In the case of `COc1ccnc2[nH]cc(C(=O)C(=O)N3CCN(C(=O)c4ccccc4)C[C@H]3C)c12`, the IC50 [3] is reported as 8700 nM.

For `Cc1c(Oc2ccccc2OCCn2ccc(=O)[nH]c2=O)cc(N(C)C(=O)CCl)c2ccc(C#N)cc12`, the EC50 [6] was 580 nM and the CC50 at 120 h [8] was 32000 nM.

Compound `C=CC(=O)N(C)c1cc(Oc2ccccc2OCCn2ccc(=O)[nH]c2=O)c(C)c2cc(C#N)ccc12` has an EC50 [6] of 560 nM and a CC50 at 120 h [8] of 32000 nM.
